Patent publication US20120252748A1, “METHODS AND COMPOSITIONS FOR DETERMINING THE RESPONSIVENESS OF CANCER THERAPEUTICS” (New York University, priority 2011, published 2012)
pIC50: −log10 of the molar value. Entries after “also recorded” stand apart in the source; their conditions may differ. Where two headings read alike, the source gives them in different places.

Columns and labels:
[1] = system: MCF-7 cells forced to express ACSL4; assay: Tamoxifen sensitivity of MCF-7 cells forced to express ACSL4; assay type: cell-based, human; conditions: forced ACSL4 expression in MCF-7, FIG. 16
Procedure: (§1) An analysis was performed on breast cancer cell lines that are hormone receptor positive and positive for ACSL4 expression. […] In the present study, estrogen responsive MCF-7 cells, which are ACSL4-negative, were forced to express […]. […] The results were confirmed using conditional and stable transfection techniques.

[2] = molecular target: T1, ACSL5 (Rattus norvegicus, UniProt O88813); conditions: Van Horn et al. 2005; cited from earlier work
T1 sequence (O88813 1-683): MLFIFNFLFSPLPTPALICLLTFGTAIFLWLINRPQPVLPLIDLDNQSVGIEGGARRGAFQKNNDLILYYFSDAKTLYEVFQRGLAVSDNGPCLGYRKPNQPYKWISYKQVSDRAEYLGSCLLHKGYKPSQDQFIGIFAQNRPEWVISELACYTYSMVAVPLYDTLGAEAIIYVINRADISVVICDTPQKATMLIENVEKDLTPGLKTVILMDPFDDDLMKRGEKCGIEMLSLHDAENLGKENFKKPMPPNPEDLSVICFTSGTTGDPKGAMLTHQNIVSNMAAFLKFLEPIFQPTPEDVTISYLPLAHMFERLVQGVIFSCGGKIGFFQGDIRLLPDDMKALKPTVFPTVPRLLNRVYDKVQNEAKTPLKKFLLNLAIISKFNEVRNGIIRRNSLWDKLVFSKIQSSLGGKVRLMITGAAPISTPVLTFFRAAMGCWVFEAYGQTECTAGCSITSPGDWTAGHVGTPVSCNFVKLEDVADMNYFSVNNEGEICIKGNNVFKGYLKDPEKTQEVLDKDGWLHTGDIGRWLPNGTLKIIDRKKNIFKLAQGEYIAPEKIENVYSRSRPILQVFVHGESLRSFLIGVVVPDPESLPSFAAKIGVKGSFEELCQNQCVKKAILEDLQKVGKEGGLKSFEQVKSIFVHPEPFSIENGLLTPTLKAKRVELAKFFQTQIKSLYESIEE

[3] = molecular target: ACSL3 (Rattus norvegicus, UniProt Q63151); conditions: Van Horn et al. 2005; cited from earlier work
[4] = molecular target: T2, ACSL1 (Rattus norvegicus, UniProt P18163); conditions: cited from earlier work
T2 sequence (P18163 1-699): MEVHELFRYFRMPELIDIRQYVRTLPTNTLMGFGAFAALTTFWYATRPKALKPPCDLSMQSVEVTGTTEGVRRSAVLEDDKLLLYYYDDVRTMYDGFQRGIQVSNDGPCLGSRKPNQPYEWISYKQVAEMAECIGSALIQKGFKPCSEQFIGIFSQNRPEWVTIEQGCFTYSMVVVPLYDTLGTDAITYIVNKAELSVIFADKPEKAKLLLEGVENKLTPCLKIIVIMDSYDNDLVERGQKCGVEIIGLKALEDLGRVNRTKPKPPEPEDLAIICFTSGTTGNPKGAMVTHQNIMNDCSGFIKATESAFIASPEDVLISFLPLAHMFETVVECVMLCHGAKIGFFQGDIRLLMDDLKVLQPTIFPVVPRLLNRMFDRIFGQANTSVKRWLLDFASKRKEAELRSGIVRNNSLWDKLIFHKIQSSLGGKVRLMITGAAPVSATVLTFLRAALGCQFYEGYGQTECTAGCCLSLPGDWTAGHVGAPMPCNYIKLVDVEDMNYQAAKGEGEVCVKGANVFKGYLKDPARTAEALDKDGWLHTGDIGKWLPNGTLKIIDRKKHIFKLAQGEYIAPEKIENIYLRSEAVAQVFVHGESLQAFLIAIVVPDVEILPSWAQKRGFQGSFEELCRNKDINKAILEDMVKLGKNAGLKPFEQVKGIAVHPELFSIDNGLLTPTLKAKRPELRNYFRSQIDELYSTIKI

[5] = system: a variety of cancer cells; conditions: Mashima et al. 2009; cited from earlier work
[6] = system: ACSL6; conditions: Van Horn et al. 2005; cited from earlier work
[7] = system: MDA-MB-231 cells; assay: Effect of triacsin C on relative cell number of MDA-MB-231 control and ACSL4 knockdown cells; assay type: cell-based, human; conditions: for pIC50: FIG. 7C, read-out: half-maximal inhibitory concentration
Procedure: Relative differences in cell number were quantitated using the Cell Titer 96 AQueous Reagent purchased from Promega (Madison, Wis.). Protocols used were as described by the manufacturer.
MDA-MB-231 cells were treated for 48 hours with either a control or ACSL4-specific siRNA. The siRNA was a SmartPool siRNA obtained from Dharmacon, consisting of 4 separate siRNAs.
Next, the effect of triacsin C treatment on MDA-MB-231 control and knockdown cells were compared. […] Mashima et al., Cancer Sci., 100: 1556-1562 (2009).

[8] = molecular target: ACSL4 (Rattus norvegicus, UniProt O35547); conditions: cited from earlier work
[9] = system: MCF-7 cells genetically manipulated to express ACSL4; assay: Growth response to estrogen, MCF-7 cells genetically manipulated to express ACSL4; assay type: cell-based, human; conditions: MCF-7 expressing ACSL4, versus estrogen-free conditions, FIG. 6B
Procedure: (§2) Additionally, a study was performed in which cell growth in the presence of estrogen of the estrogen dependent MCF-7 cells, which are ACSL4 negative, were compared to modified MCF-7 cells, which were induced to express ACSL4.
as §1

[10] = system: MDA-MB-415 cells; assay: Growth response to estrogen, MDA-MB-415 cells; assay type: cell-based, human; conditions: MDA-MB-415 (ER-positive, ACSL4-positive), versus control without estrogen, FIG. 5
Procedure: (§3) As indicated above in the results of Example 2, two cell lines which were ER-positive where also ACSL4-positive. A study comparing cell growth in the presence of estrogen of one of these cell lines (MDA-MB-415) to a cell line which is ER-positive and ACSL4 negative (MCF-7) was performed.

[11] = system: MCF-7 cells; assay: Growth response to estrogen, MCF-7 cells; assay type: cell-based, human; conditions: MCF-7 (ER-positive, ACSL4-negative), versus estrogen-free control, FIG. 5, FIG. 6A
Procedure: as §3, §2

Sequence of ACSL4 (O35547 whole entry): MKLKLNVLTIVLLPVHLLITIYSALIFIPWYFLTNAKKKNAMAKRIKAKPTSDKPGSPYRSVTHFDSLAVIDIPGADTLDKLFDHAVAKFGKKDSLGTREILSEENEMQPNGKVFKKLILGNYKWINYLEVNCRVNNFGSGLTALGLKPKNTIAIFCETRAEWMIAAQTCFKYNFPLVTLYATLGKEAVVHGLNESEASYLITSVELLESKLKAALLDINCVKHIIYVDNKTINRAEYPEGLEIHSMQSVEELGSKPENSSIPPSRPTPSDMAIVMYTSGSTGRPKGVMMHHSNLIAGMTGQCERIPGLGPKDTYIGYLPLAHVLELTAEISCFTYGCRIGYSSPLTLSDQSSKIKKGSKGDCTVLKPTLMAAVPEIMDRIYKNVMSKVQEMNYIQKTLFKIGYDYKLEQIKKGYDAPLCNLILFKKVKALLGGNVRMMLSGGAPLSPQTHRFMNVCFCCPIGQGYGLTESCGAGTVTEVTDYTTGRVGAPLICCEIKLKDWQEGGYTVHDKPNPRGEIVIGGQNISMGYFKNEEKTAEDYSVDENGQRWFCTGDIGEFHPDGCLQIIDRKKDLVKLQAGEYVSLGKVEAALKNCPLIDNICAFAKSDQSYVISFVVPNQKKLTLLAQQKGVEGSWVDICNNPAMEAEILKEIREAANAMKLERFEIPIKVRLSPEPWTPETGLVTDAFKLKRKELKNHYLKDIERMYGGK
Sequence of ACSL3 (Q63151 whole entry): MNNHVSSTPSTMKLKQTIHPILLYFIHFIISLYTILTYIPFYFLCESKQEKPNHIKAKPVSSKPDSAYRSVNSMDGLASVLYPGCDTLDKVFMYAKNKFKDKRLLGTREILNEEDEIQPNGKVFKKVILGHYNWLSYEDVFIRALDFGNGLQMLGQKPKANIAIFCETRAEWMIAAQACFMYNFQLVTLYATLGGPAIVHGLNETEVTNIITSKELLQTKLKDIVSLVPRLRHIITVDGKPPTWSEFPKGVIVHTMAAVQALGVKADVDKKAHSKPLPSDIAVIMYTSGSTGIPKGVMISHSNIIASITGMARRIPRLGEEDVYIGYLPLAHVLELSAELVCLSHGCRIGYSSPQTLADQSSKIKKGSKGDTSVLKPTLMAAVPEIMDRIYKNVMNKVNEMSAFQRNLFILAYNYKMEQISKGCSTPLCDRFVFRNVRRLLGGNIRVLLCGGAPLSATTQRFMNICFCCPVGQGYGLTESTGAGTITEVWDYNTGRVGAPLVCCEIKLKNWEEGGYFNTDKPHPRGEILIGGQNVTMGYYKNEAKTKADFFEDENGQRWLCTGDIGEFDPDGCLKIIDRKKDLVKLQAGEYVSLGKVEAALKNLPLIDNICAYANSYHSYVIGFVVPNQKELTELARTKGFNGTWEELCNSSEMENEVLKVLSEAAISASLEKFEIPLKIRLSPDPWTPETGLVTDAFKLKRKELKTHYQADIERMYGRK

With `CC/C(=C(\c1ccccc1)c1ccc(OCCN(C)C)cc1)c1ccccc1` [tamoxifen] the “sensitivity to tamoxifen treatment” value [1] was “decrease in the sensitivity”.

In the case of `CCC/C=C/C/C=C/C=C/C=N/NN=O` [triacsin C], the “effect on the activity of ACSL5” value [2] is given as “little or no effect”, the “inhibition of ACSL3” value [3] is given as “specific for inhibition” and the “inhibition of ACSL1” value ([4]; Van Horn et al. 2005) is given as “specific for inhibition”. For the same compound, the “relative sensitivity by reported half-maximal inhibitory concentration values” ([4]; ranking among ACSL1, 3 and 4) was “most sensitive”, the “apoptosis of cancer cells” value [5] was “induce apoptosis” and the “proliferation of cancer cells” value [5] was “inhibit proliferation”. For the same compound, the “effect on the activity of ACSL6” value [6] was “little or no effect”, the “increase in triacsin C sensitivity on ablation of ACSL4” value ([7]; ACSL4 knockdown versus control MDA-MB-231 cells) was “three-fold increase” and the pIC50 ([7]; MDA-MB-231 ACSL4 knockdown cells (ACSL4-siRNA)) was 6.25. The pIC50 ([7]; MDA-MB-231 control cells (control siRNA)) was 5.80, the “inhibition of ACSL4” value ([8]; Van Horn et al. 2005) was “specific for inhibition” and the “relative sensitivity by reported half-maximal inhibitory concentration values” ([8]; ranking among ACSL1, 3 and 4) was “least sensitive”.

In the case of estrogen, the “growth response to estrogen” value [9] was “became unresponsive to the proliferative effect; also recorded: loss of responsiveness”, the “growth response to estrogen” value [10] was “no significant growth response; also recorded: no increase in cellular proliferation” and the “growth response to estrogen” value [11] was “significant growth response; also recorded: proliferative growth effect”.
